Results published in patent US20080038228A1, “Method” (Danisco A/S, priority 2003, published 2008).
“Also recorded” adds a separate entry of the source.

Assays:
[1] = system: cyclooxygenase 2 gene expression in Caco2 cells; test: Caco-2 cell-based exposure test, Cox-2 gene expression (Experiment 1: selected metabolites and co-cultured bacterium); set-up: species or system human; details: 24 hour treatment, metabolites 5 mM, bacterium co-cultured in membrane insert
Procedure: (§1) The human colorectal carcinoma cell line Caco-2 was grown at 37° C. and 5% CO2 in serum-free Dulbeccos' MEM (Gibco) supplemented with 1 mM sodium pyruvate (Gibco) and 1× non-essential amino acids (Gibco) (DMEM). When grown without added bacteria, 20 Uml^−1 penicillin (Gibco), 20 μgml^−1 streptomycin (Gibco) and 0.5 μgml^−1 amphotericin (Gibco) were added to the medium. Bifidobacterium sp. 420 was grown anaerobically for 48 hours at 37° C. in a BIF medium consisting of 10 gl^−1 tryptic digest of casein peptone; 5 gl^−1 meat extract; 5 gl^−1 yeast extract; 10 gl^−1 glucose; 3 gl^−1 K2HPO4; 0.1% (volume/volume) Tween 80; 1% ascorbic acid and 0.05% cysteine-HCl; pH 6.8. 2 ml of logarithmic phase culture was centrifuged at 4000 rpm for 3 minutes. The cell pellet was suspended in 1.6 ml DMEM. The production of short chain organic acids by the bacterium was tested from fresh and conditioned bifidobacterium medium using gas chromatography.
(§2) To determine the effects of various treatments on the Cox-1/Cox-2 expression pattern, approximately 500 000 Caco-2 cells/well were seeded on 24-well cell culture plates. The cells were allowed to attach for 24 hours, after which the media were replaced by fresh media (total volume 1 ml/well) containing either no other added components than the ones described above (control treatments, with and without antibiotics) or antibiotic supplemented media with 5 mM sodium butyrate; 5 mM sodium propionate; 5 mM sodium acetate or 5 mM sodium lactate. In addition, wells were prepared that contained no antibiotics but a 0.2 μm anopore membrane tissue culture insert (Nunc, Denmark) into which 100 μl of the bacterial suspension described above was added.
(§3) After 24 hour exposure, media and culture inserts were discarded, cells were lysed and RNA was extracted using Qiagen's (Germany) RNEasy Mini Kit DNA was digested using the same manufacturer's RNase free DNase. Reverse transcription was performed using the High Capacity cDNA Archive Kit (Applied Biosystems, USA) according to the instructions provided by the manufacturer. Cox-1/Cox-2 expression patterns were determined by real-time quantitative TaqMan PCR (Holland et al., 1991 Proc. Natl. Acad. Sci. USA August 15; 88(16): 7276-80; and Livak and Scmittgen, 2001 Methods December; 25(4):402-8) using the default settings of an ABIPrism 7000 Sequence Detection instrument (Applied Biosystems).

[2] = system: cyclooxygenase 1 gene expression in Caco2 cells; test: Caco-2 cell-based exposure test, Cox-1 gene expression (Experiment 1: selected metabolites and co-cultured bacterium); set-up: species or system human; details: 24 hour treatment, metabolites 5 mM, bacterium co-cultured in membrane insert
Procedure: as §1, with “The production of short chain organic acids by the bacterium was tested from fresh and conditioned bifidobacterium medium using gas chromatography.” left out
as §3, with “Reverse transcription was performed using the High Capacity cDNA Archive Kit (Applied Biosystems, USA) according to the instructions provided by the manufacturer.” left out

Cox-2 expression = details: according to prior art; cited from earlier work
[3] = system: Cox-1/Cox-2 expression pattern in Caco-2 cells; test: Cox-1/Cox-2 ratio and expression pattern in Caco-2 cells; format: cell-based, human; details: Experiment 1, Caco-2 cells, 24 hour exposure
Procedure: as §2, with “In addition, wells were prepared that contained no antibiotics but a 0.2 μm anopore membrane tissue culture insert (Nunc, Denmark) into which 100 μl of the bacterial suspension described above was added.” left out
as §3, with “Reverse transcription was performed using the High Capacity cDNA Archive Kit (Applied Biosystems, USA) according to the instructions provided by the manufacturer.” left out
Two bifidobacteria (Bifidobacterium sp. 420 and Bifidobacterium longum 913) were cultured as described in Experiment 1. […] Bacterial growth was stopped by chilling confluent cultures on ice, after which cell densities were determined by flow cytometry (FACS Calibur, Becton Dickinson). […]

[4] = system: indomethacin-induced gastrointestinal damage; test: Rat model of indomethacin-induced gastrointestinal damage, damage area (Experiment 3); format: in vivo; details: male Wistar rats
Description: (§4) A previously described rat model was used to study indomethacin-induced gastrointestinal damage (see Meddings and Gibbons, Gastroenterology 1998; 114:83-92). Briefly, male Wistar rats were used and ten rats were included in each treatment group. Five different treatments were included: control group with no indomethacin treatment, indomethacin control group with no intervention treatment, indomethacin with 10^8 Bifidobacterium per rat, indomethacin with 10^10 Bifidobacterium per rat, and indomethacin with betaine (200 mg/rat). A single dose of indomethacin (10 mg/kg) was given p.o. preceded by a seven-day intervention with or without Bifidobacterium or betaine. In addition, a mixture of sucrose, lactulose, mannitol and sucralose was given p.o to measure gastrointestinal (GI) permeability. Urine samples were obtained at 16 hours after the challenge with indomethacin and prior to sacrificing the animals. Mucosa of the stomach and the intestine were examined by a pathologist and tissue samples of healthy-appearing mucosa for RNA isolation were collected from stomach, proximal and distal small intestine, caecum and proximal and distal colon. RNA was isolated and expression of cyclooxygenase-1 and -2 (COX-1 and COX-2, respectively) were determined by QPCR.

[5] = system: gastrointestinal (GI) permeability; test: Gastrointestinal permeability, urine concentrations of marker sugars in indomethacin-challenged rats (Experiment 3); format: in vivo, rat; details: male Wistar rats, single dose 10 mg/kg p.o., urine at 16 hours
Description: as §4

[6] = system: indomethacin-induced gastrointestinal damage; test: Combined live Bifidobacterium and betaine in indomethacin-challenged rats, damage area (Experiment 4); format: in vivo, rat; details: Experiment 4, indomethacin-challenged male Wistar rats; Bifidobacterium 10^10 and betaine 200 mg daily per animal; preliminary investigations
Procedure: Male Wistar rats as described previously in Experiment 3 above are split into the following treatment groups: a control, an indomethacin challenge group as a control, and treatment groups 3-5, which receive intervention treatment by live Bifidobacterium (10^10 daily dose per animal) and betaine (200 mg of daily dose per animal) either separately or in combination. Damage is determined from the sacrificed rats only.

| SMILES | Cox-2 gene expression level, fold change in relation to the control [1] [fold change] | Cox-1 gene expression level, fold change in relation to the control [2] [fold change] | effect on Cox-2 expression (Cox-2 expression) | Cox-1/Cox-2 ratio / expression pattern (FIG. 1) [3] | other results |
| --- | --- | --- | --- | --- | --- |
| CC(=O)[O-].[Na+] [acetate, sodium acetate] | 1.17 | 2.08 |  |  |  |
| CCC(=O)[O-].[Na+] [propionate, sodium propionate] | 0.36 |  | lowering effect | increase |  |
| COc1ccc2c(c1)c(CC(=O)O)c(C)n2C(=O)c1ccc(Cl)cc1 [Indomethacin, indomethacin] |  |  |  |  | gross pathological changes (ulceration) ([4]; single dose 10 mg/kg p.o.): induced ulceration mainly to fundic stomach, but also to pyloric stomach; urine concentrations of marker sugars after the challenge [5]: significant increase |
| CCCC(=O)[O-].[Na+] [butyrate, sodium butyrate] | 0.15 |  | lowering effect | increase |  |
| C[N+](C)(C)CC(=O)[O-] [Betaine, trimethylglycine] |  |  |  |  | damage area in the gastrointestinal tract [6]: tends to decrease; pathological damage area ([4]; seven-day intervention, then indomethacin 10 mg/kg p.o.): tendency to decrease; also recorded: somewhat reduced |
| CC(O)C(=O)[O-].[Na+] (centres unmarked) [lactate, sodium lactate] | 0.74 | 0.91 |  |  |  |
